Assays:
Assay type in all cases: physicochemical
[1] = Interconversion/slurry experiments of mixed crystalline forms in 2-propanol (XRPD); settings: 1.0 mL 2-Propanol, 30±2° C. 7 days, then 20±2° C. 2 hours, XRPD
Experimental: About 25 mg of a specific crystalline form of compound (1) and 25 mg of the same or another crystalline form of compound (1) were charged into a vial and 1.0 mL of 2-Propanol was added. The vials were closed and the mixtures were stirred (via shaking using an Eppendorf Thermomixer, starting with 750 rpm, increased to 1000 rpm after 1 day) at an elevated temperature (30±2° C.) for 7 days. Subsequently the mixtures were cooled to 20±2° C. and stirred for an additional 2 hours.
The solids were then separated via filtration using a suction filter. To dry the thus obtained solid material an air flow was applied for 2 to 3 hours.
The crystalline form of the obtained materials was determined using XRPD. The experiments are summarized below in table 2 below.
A mixture of two different crystalline forms of compound (1) was charged into a vial and 1.0 mL of 2-Propanol was added (details see table).
The vials were closed and the mixtures were stirred (by means of shaking, Eppendorf Thermomixer, 750 rpm at first, increased to 1000 rpm after 1 d) at elevated temperature (30±2° C.) for 7 days.
Subsequently, the mixtures were cooled to 20±2° C. and stirred for additional 2 hours.
The solids were then isolated via filtration using a suction filter. The air flow from the suction pump was applied for 2 to 3 hours to dry the isolated solid.

[2] = Dynamic vapor sorption (DVS), hygroscopicity
Experimental: Crystalline forms were characterized by dynamic vapor sorption (DVS) using a Porotec DVS 1000 or a SMS DVS Intrinsic water vapor sorption analyzer. For the DVS analysis, a step width of 10% r.h. was applied allowing the samples to equilibrate and reach weight constancy (±0.002%) for at least 10 min on each step. All measurements were performed according to the following program: 50% r.h.→90% r.h., 90→0% r.h., 0%→90% r.h., 90%→50% r.h. A cycle with increasing humidity is also known as a sorption cycle, a cycle with decreasing humidity is also known as a desorption cycle. The details of the respective DVS measurements are shown below in table 51 and discussed further below.
The hygroscopicity of the respective crystalline forms determined via the DVS measurements was classified according to the ranges for mass increase defined in the European Pharmacopoeia: very hygroscopic (vh): increase of the mass ≧15%; hygroscopic (h): increase of the mass is less than 15% and equal or greater than 2%; slightly hygroscopic (sh): increase of the mass is less than 2% and equal or greater than 0.2%; not hygroscopic (nh): increase of the mass is less than 0.2%; deliquescent (d): sufficient water is absorbed to form a liquid.

[3] = Chemical stability of crystalline forms, open-vial storage (content by HPLC, crystalline form by XRPD)
Experimental: Samples of compound 1 in different crystalline forms were stored in open vials under controlled conditions at different temperatures and rel. humidities for 28 days. Prior to storage and after 14 and 28 days the content of compound (1) in the sample was determined via HPLC and the crystalline form was measured via XRPD.

[4] = Slurry of a single crystalline form in solvent, resulting form by XRPD; settings: suspensions of Table 6: acetonitrile, acetone/water or water, RT or 50° C., 3 to 5 d
Experimental: A quantity of compound (1) is charged into a vial or flask and an amount of solvent is added. The resulting suspension/solution is stirred (e.g. orbital shaker or overhead-stirrer) for a given time at a specific temperature. Subsequently, if the suspension/solution was stirred at an elevated temperature, it is allowed to cool to room temperature or any other predetermined temperature to precipitate or crystallize the product and the solvent is removed by filtration.
The vial was closed and the mixture (a white suspension) was stirred (by means of shaking, 400 rpm, PLS Synthesiser) at room temperature (22±2° C.) for 13 days.
The solid was separated using a suction filter and dried by applying an air flow for additional 5 to 30 minutes (until the solid appeared to be dry).
The vial was closed and the suspension was stirred (by means of shaking, PLS shaker, 400 rpm) at an elevated temperature (40° C.±2) for 20 h.
The mixture was cooled to 20±2° C. The solid was separated using a suction filter (G4) and dried by applying an air flow until the sample appeared to be dry. The white solid was subsequently left for 1 h at ambient conditions.

CN(C)[C@]1(c2cccc(F)c2)CC[C@]2(CC1)c1[nH]c3ccccc3c1CCN2C(=O)/C=C/c1ccccc1 [A17.9]
resulting crystalline form [1]: A + H

CN(C)[C@]1(c2cccc(F)c2)CC[C@]2(CC1)c1[nH]c3ccccc3c1CCN2C(=O)/C=C/c1ccccc1 [crystalline form E, cis-(E)-4-(3-Fluorophenyl)-2′,3′,4′,9′-tetrahydro-N,N-dimethyl-2′-(1-oxo-3-phenyl-2-propenyl)-spiro[cyclohexane-1,1′[1H]-pyrido[3,4-b]indol]-4-amine]
hysteresis (in words) ([2]; between 10% and 40% relative humidity): significant hysteresis | Content cmpd (1) ([3]; 40° C., 75% r.H., storage 0 d, listed as E): 99.76% | Content cmpd (1) ([3]; 40° C., 75% r.H., storage 14 d, listed as E): 99.80% | Content cmpd (1) ([3]; 40° C., 75% r.H., storage 28 d, listed as E): 99.50% | Content cmpd (1) ([3]; 50° C., storage 0 d, listed as E): 99.76% | Content cmpd (1) ([3]; 50° C., storage 14 d, listed as E): 97.25% | Content cmpd (1) ([3]; 50° C., storage 28 d, listed as E): 95.53%

CN(C)[C@]1(c2cccc(F)c2)CC[C@]2(CC1)c1[nH]c3ccccc3c1CCN2C(=O)/C=C/c1ccccc1 [crystalline form D, cis-(E)-4-(3-Fluorophenyl)-2′,3′,4′,9′-tetrahydro-N,N-dimethyl-2′-(1-oxo-3-phenyl-2-propenyl)-spiro[cyclohexane-1,1′[1H]-pyrido[3,4-b]indol]-4-amine]
transformation into another polymorphic form [4]: did not transform into another polymorphic form | hysteresis (in words) ([2]; sorption and desorption behavior): no significant hysteresis | Content cmpd (1) ([3]; 40° C., 75% r.H., storage 0 d, listed as D): 84.61% | Content cmpd (1) ([3]; 40° C., 75% r.H., storage 14 d, listed as D): 84.27% | Content cmpd (1) ([3]; 40° C., 75% r.H., storage 28 d, listed as D): 83.92% | Content cmpd (1) ([3]; 50° C., storage 0 d, listed as D): 84.61% | Content cmpd (1) ([3]; 50° C., storage 14 d, listed as D): 84.65% | Content cmpd (1) ([3]; 50° C., storage 28 d, listed as D): 83.54%
